Tested on: TNF-α and IL-1 secretion
Assay: investigated assays, not specified which (TNF-α/IL-1 secretion in human PBMC and in mouse peritoneal macrophages, LPS-induced TNF-α/IL-1 secretion in mice, writhing assay, LPS-induced shock in mice)
Conditions: assays not named; active = IC-50 20 μM or lower (PBMC), 10 μM or lower (macrophages), 30% or more inhibition of TNF-α at 10 mg/kg, analgetic activity as acetylsalicylic acid or better, survival 40% or more at 30 mg/kg
Method: Human peripheral blood mononuclear cells (PBMC) were prepared from heparinized whole blood after separating PBMC on Ficoll-Paque™Plus (Amersham-Pharmacia). To determine the TNF-α level, 3.5-5×10^4 cells were cultivated in a total volume of 200 μl for 18 to 24 hours on microtitre plates with a flat bottom (96 wells, Falcon) in RPMI 1640 medium, into which there were added 10% FBS (Fetal Bovine Serum, Biowhittaker) previously inactivated at 54° C./30 min, 100 units/ml of penicillin, […] of streptomycin and 20 mM HEPES (GIBCO). The cells were incubated at 37° C. in an atmosphere with 5% CO2 and 90% humidity. […] The IL-1 level was determined in an assay under the same conditions and with the same number of cells and the same concentration of the stimulus by ELISA procedure (R&D Systems). The percentage of inhibition of TNF-α or IL-1 production was calculated by the equation: % inhibition=[1−(TS−NC)/(PC−NC)]*100. […]
In order to obtain peritoneal macrophages, Balb/C mouse strain males, age 8 to 12 weeks, were injected i.p. with 300 μg of zymosan (SIGMA) dissolved in a phosphate buffer (PBS) in a total volume of 0.1 ml/mouse. […] The TNF-α level in the cell supernatant was determined by ELISA procedure (R&D Systems, Biosource). The IL-1 level was determined in an assay identical to the assay for TNF-α by ELISA procedure (R&D Systems). […]

In the case of “Dimethyl-[3-(11-methoxy-8-oxa-1-thia-benzo[e]naphtho[3,2-h]azulene-2-ylmethoxy)-propyl]-amine [Example 7]”, the “activity in at least two investigated assays” value was “show activity in at least two investigated assays”.

From patent publication US7262309B2, “1- or 3-thia-benzonaphthoazulenes as inhibitors of tumor necrosis factor production and intermediates for the preparation thereof” (GlaxoSmith Kline Istrazivocki Centar Zagreb, D.O.O., priority 2002, dated 2007)
